Reference: ChEMBL document CHEMBL1909046, “DrugMatrix in vitro pharmacology data”

What was measured:
[1] = DRUGMATRIX: Sodium/nucleoside co-transporter radioligand binding (ligand: nitrobenzylthioinosine); format: cell membranes, Cavia porcellus, Dunkin-Hartley, Cerebral cortex, Membrane; conditions: Not Active = under 50% inhibition at 10 µM
[2] = DRUGMATRIX: Sigma2 radioligand binding (ligand: [3H] Ifenprodil); format: cell membranes, Rattus norvegicus, Wistar, Brain, Membrane; conditions: Not Active = under 50% inhibition at 10 µM
[3] = target: Insulin receptor (Rattus norvegicus, UniProt P15127); format: cell membranes, Wistar, Liver, Membrane; also: in other assays of this panel Not Active means under 50% inhibition at 10 µM
Sequence of Insulin receptor (P15127 27-759 limits assumed): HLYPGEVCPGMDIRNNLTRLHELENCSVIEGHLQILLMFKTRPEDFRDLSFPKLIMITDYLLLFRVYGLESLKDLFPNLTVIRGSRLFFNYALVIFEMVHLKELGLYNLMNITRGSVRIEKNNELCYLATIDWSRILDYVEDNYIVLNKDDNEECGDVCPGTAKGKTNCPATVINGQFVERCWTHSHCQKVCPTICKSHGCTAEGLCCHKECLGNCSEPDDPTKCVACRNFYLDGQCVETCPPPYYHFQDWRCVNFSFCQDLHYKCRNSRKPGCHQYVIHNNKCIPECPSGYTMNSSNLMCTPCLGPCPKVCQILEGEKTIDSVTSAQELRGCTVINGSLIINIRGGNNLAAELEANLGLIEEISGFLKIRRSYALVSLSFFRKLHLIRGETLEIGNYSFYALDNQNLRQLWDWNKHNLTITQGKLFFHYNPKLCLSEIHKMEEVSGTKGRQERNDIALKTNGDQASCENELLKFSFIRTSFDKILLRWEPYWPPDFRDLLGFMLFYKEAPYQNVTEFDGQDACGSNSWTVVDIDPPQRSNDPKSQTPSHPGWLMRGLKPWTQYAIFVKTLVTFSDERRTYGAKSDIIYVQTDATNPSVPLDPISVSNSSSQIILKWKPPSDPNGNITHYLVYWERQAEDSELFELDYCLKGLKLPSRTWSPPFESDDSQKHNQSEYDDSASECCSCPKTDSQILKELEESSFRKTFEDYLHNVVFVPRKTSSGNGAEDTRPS
Sequence of Insulin receptor (P15127 764-1383 limits assumed): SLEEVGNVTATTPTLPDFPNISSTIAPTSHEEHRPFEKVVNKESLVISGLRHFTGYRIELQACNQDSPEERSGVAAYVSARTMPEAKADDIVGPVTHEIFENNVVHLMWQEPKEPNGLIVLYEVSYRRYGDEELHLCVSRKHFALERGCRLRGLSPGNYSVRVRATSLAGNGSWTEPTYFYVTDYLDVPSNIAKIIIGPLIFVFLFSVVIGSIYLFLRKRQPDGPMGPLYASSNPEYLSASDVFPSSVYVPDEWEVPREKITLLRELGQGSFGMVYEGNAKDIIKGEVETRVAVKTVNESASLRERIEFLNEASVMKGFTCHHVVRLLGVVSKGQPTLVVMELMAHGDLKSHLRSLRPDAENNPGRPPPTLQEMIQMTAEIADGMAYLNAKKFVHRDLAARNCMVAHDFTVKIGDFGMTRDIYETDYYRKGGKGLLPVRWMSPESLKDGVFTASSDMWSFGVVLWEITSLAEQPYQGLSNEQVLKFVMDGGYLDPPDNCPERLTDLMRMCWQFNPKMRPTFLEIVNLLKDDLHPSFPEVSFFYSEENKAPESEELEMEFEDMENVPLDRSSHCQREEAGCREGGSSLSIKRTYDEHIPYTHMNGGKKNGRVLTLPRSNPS

[4] = target: Mu-type opioid receptor (Homo sapiens, UniProt P35372); assay: DRUGMATRIX: Opiate mu (OP3, MOP) radioligand binding (ligand: [3H] Diprenorphine); format: cell membranes, CHO-K1, Membrane; conditions: cho-k1; Not Active = under 50% inhibition at 10 µM
Sequence of Mu-type opioid receptor (P35372 whole entry): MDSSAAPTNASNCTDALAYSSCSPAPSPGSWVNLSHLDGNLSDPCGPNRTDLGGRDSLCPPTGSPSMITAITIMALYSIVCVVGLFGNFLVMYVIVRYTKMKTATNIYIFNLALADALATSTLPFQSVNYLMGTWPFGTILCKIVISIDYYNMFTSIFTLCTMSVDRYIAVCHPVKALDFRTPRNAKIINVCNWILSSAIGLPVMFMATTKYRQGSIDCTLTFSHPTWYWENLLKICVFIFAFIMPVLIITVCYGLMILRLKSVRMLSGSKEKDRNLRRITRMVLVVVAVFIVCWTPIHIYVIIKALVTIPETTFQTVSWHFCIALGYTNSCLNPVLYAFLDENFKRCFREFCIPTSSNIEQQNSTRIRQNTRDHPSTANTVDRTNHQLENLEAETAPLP

[5] = target: T1, Angiotensin-converting enzyme (Oryctolagus cuniculus, UniProt P12822); format: tissue-based, Lung;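 also: enzymatic inhibition of angiotensin-converting enzyme measured with FAPGG as the substrate; in other assays of this panel Not Active means under 50% inhibition at 10 µM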
T1 sequence (P12822 whole entry): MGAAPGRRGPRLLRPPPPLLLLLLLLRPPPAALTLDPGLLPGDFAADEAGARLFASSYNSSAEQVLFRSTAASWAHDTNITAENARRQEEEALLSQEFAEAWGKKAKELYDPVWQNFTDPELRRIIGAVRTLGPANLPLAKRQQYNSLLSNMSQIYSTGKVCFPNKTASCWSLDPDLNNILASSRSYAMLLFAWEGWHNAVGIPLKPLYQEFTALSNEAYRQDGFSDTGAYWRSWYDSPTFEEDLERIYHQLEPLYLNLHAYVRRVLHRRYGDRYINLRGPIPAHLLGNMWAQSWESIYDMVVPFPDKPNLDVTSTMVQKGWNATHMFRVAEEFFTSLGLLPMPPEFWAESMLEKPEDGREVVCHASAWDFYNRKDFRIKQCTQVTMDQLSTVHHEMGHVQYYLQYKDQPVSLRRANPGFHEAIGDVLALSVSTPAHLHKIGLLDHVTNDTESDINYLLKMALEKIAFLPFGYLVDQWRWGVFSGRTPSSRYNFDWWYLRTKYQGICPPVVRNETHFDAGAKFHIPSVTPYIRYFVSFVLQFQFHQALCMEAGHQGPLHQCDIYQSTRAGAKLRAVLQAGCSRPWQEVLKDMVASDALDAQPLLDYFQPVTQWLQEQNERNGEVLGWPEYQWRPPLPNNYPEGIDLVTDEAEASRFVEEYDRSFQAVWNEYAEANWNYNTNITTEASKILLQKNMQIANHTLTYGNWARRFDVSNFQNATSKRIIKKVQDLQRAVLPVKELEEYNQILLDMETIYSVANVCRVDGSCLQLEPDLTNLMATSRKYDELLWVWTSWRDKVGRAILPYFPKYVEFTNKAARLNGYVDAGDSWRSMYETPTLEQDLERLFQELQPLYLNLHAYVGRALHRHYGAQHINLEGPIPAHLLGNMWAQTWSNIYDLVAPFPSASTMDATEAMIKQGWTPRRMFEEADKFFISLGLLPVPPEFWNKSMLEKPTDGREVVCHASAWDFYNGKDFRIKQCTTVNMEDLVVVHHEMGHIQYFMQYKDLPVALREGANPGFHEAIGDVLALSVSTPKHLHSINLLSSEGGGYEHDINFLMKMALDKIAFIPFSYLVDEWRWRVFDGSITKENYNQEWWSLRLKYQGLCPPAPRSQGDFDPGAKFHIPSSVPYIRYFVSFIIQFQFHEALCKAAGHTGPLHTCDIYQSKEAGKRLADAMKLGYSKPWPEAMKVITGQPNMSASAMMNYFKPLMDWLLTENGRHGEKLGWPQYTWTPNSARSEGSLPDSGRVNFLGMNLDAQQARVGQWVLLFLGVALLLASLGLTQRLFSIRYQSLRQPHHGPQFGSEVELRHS

[6] = target: Tyrosine-protein kinase Fyn (Homo sapiens, UniProt P06241); assay: biochemical; format: cell-based, Insect cells; conditions: insect cells;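 also: enzymatic inhibition of Fyn kinase activity measured with Poly(Glu:Tyr) as the phosphorylation substrate; in other assays of this panel Not Active means under 50% inhibition at 10 µM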
Sequence of Tyrosine-protein kinase Fyn (P06241 whole entry): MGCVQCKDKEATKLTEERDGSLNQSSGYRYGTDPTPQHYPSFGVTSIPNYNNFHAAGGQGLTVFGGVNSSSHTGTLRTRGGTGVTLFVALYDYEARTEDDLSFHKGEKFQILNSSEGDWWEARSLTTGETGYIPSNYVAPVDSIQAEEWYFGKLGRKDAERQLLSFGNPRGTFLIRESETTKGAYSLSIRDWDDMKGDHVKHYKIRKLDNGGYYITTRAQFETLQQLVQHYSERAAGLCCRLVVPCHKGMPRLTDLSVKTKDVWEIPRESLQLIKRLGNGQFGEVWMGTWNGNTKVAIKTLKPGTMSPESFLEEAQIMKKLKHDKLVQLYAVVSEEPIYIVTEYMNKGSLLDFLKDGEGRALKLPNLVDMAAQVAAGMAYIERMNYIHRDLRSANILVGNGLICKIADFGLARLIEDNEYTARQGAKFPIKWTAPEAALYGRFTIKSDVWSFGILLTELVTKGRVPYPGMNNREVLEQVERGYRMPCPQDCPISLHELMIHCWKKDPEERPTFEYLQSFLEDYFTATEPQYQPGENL

[7] = target: T2, Cytochrome P450 1A2 (Homo sapiens, UniProt P05177); conditions: bti-tn-5b1-4; also: in other assays of this panel Not Active means under 50% inhibition at 10 µM
T2 sequence (P05177 whole entry): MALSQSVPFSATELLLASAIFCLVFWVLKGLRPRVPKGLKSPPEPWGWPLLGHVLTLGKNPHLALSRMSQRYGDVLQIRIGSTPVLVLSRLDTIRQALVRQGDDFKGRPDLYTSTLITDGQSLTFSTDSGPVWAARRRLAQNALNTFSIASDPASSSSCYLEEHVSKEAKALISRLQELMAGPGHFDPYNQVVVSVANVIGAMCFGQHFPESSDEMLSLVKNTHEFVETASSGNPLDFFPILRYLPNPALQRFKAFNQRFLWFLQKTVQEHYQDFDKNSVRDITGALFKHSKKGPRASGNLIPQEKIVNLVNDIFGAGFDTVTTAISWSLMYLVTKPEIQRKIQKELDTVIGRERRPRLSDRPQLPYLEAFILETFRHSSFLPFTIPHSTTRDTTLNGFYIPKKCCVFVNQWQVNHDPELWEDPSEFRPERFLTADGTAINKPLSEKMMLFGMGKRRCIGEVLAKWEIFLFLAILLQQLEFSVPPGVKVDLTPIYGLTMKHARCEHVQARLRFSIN

Cn1c(=O)c2c(ncn2C)n(C)c1=O [CAFFEINE]
Not Active: IC50 [1] | Ki [1] | IC50 [2] | Ki [2] | IC50 [3] | IC50 [4] | IC50 [5] | IC50 [6] | IC50 [7] | Ki [7]

ClC(Cl)(Cl)Cl [CARBON TETRACHLORIDE]
Not Active: IC50 [1] | Ki [1] | IC50 [2] | Ki [2] | IC50 [3] | IC50 [4] | IC50 [5] | IC50 [6] | IC50 [7] | Ki [7]

CO/N=C(\C(=O)N[C@@H]1C(=O)N2C(C(=O)O)=C(COC(C)=O)CS[C@H]12)c1csc(N)n1 [CEFOTAXIME]
Not Active: IC50 [1] | Ki [1] | IC50 [2] | Ki [2] | IC50 [3] | IC50 [4] | IC50 [5] | IC50 [6] | IC50 [7] | Ki [7]

CNC1=Nc2ccc(Cl)cc2C(c2ccccc2)=[N+]([O-])C1 [CHLORDIAZEPOXIDE]
Not Active: IC50 [1] | Ki [1] | IC50 [2] | Ki [2] | IC50 [3] | IC50 [4] | IC50 [5] | IC50 [6] | IC50 [7] | Ki [7]

Cc1cc(O)cc(C)c1Cl [CHLOROXYLENOL]
Not Active: IC50 [1] | Ki [1] | IC50 [2] | Ki [2] | IC50 [3] | IC50 [4] | IC50 [5] | IC50 [6] | IC50 [7] | Ki [7]

CCCNC(=O)NS(=O)(=O)c1ccc(Cl)cc1 [CHLORPROPAMIDE]
Not Active: IC50 [1] | Ki [1] | IC50 [2] | Ki [2] | IC50 [3] | IC50 [4] | IC50 [5] | IC50 [6] | IC50 [7] | Ki [7]

NS(=O)(=O)c1cc(C2(O)NC(=O)c3ccccc32)ccc1Cl (stereo not given) [CHLORTHALIDONE]
Not Active: IC50 [1] | Ki [1] | IC50 [2] | Ki [2] | IC50 [3] | IC50 [4] | IC50 [5] | IC50 [6] | IC50 [7] | Ki [7]

O=C(O)CC(O)(CC(=O)O)C(=O)O [CITRIC ACID]
Not Active: IC50 [1] | Ki [1] | IC50 [2] | Ki [2] | IC50 [3] | IC50 [4] | IC50 [5] | IC50 [6] | IC50 [7] | Ki [7]

CC(C)NCC(O)c1ccccc1Cl (stereo not given) [CLORPRENALINE]
Not Active: IC50 [1] | Ki [1] | IC50 [2] | Ki [2] | IC50 [3] | IC50 [4] | IC50 [5] | IC50 [6] | IC50 [7] | Ki [7]

CN1CCN(C(c2ccccc2)c2ccccc2)CC1 [CYCLIZINE]
Not Active: IC50 [1] | Ki [1] | IC50 [2] | Ki [2] | IC50 [3] | IC50 [4] | IC50 [5] | IC50 [6] | IC50 [7] | Ki [7]

CN1C[C@@H]2C[C@H]1CN2c1cc2c(cc1F)c(=O)c(C(=O)O)cn2C1CC1 [DANOFLOXACIN]
Not Active: IC50 [1] | Ki [1] | IC50 [2] | Ki [2] | IC50 [3] | IC50 [4] | IC50 [5] | IC50 [6] | IC50 [7] | Ki [7]

COc1cccc2c1C(=O)c1c(O)c3c(c(O)c1C2=O)C[C@@](O)(C(C)=O)C[C@@H]3O[C@H]1C[C@H](N)[C@H](O)[C@H](C)O1 [DAUNORUBICIN]
Not Active: IC50 [1] | Ki [1] | IC50 [2] | Ki [2] | IC50 [3] | IC50 [4] | IC50 [5] | IC50 [6] | IC50 [7] | Ki [7]

O=C(O)c1cc(-c2ccc(F)cc2F)ccc1O [DIFLUNISAL]
Not Active: IC50 [1] | Ki [1] | IC50 [2] | Ki [2] | IC50 [3] | IC50 [4] | IC50 [5] | IC50 [6] | IC50 [7] | Ki [7]

C[S+](C)[O-] [DIMETHYL SULFOXIDE]
Not Active: IC50 [1] | Ki [1] | IC50 [2] | Ki [2] | IC50 [3] | IC50 [4] | IC50 [5] | IC50 [6] | IC50 [7] | Ki [7]

CC1=NN(c2ccccc2)C(=O)C1 [EDARAVONE]
Not Active: IC50 [1] | Ki [1] | IC50 [2] | Ki [2] | IC50 [3] | IC50 [4] | IC50 [5] | IC50 [6] | IC50 [7] | Ki [7]
